Legend:
Assay type in all cases: functional, cell-based; call rule not given here
HeLa = experiment: Concentration required to inhibit growth of human cervical carcinoma (HeLa) cell line
KB [1] = experiment: Concentration required to inhibit growth of human epidermoid carcinoma (KB) cell line
Vero = experiment: Concentration required to inhibit growth of african green monkey kidney cell line; settings: Chlorocebus sabaeus
HepG2 = experiment: Concentration required to inhibit growth of human hepatocellular carcinoma (HepG2) cell line
KB [2] = experiment: Concentration required to inhibit growth of human epidermoid carcinoma (KB) cell line; IA= Inactive

IC50 (HeLa) [µM] | IC50 (KB [1]) [µM] | IC50 (HepG2) [µM] | IC50 (KB [2]) | Compound | IC50 (Vero) [µM]
0.3 | < 0.22 | 0.38 | – | COc1cc(C(=O)OCC(C)(C)CC2=C(O)C(=O)c3ccccc3C2=O)c(O)c2ccccc12 | 12.7
41.9 | 37.6 | 53.1 | – | COc1ccc(OC)c(C(=O)OCC(C)CC2=C(O)C(=O)c3ccccc3C2=O)c1 (centres undefined) | 4.05
38.8 | 14.9 | 40.7 | – | COC1=C(CC(C)(C)COC(=O)c2cc(OC)ccc2OC)C(=O)c2ccccc2C1=O | 13.4
32.3 | 12.8 | 35.9 | – | COc1cc(C(=O)OCCCC2=C(O)C(=O)c3ccccc3C2=O)c(OC)c2ccccc12 | 75.4
– | 11.2 | – | – | CC(C)(CO)CC1=C(O)C(=O)c2ccccc2C1=O | –
47.5 | 50 | 54.2 | – | COc1c(C(=O)OCCCC2=CC(=O)c3ccccc3C2=O)ccc2ccccc12 | 40
36.9 | 12.5 | 14.4 | – | COc1c(C(=O)OCC(C)(C)CC2=CC(=O)c3ccccc3C2=O)ccc2ccccc12 | 30.4
4.34 | 4.65 | 5.44 | – | CC(C)(COC(=O)c1ccccc1O)CC1=C(O)C(=O)c2ccccc2C1=O | > 136
> 259 | > 259 | > 259 | – | O=C1C=C(CCCOC(=O)c2ccc3ccccc3c2O)C(=O)c2ccccc21 | > 259
0.38 | 0.66 | 1.04 | – | COc1c(C(=O)OCC(C)CC2=C(O)C(=O)c3ccccc3C2=O)ccc2ccccc12 (centres undefined) | 0.97
38.2 | 29 | 27.3 | – | CC(COC(=O)c1ccc2ccccc2c1)CC1=CC(=O)c2ccccc2C1=O (centres undefined) | 43.4
4.25 | 3.58 | 3.7 | – | CC(COC(=O)c1ccc2ccccc2c1)CC1=C(O)C(=O)c2ccccc2C1=O (centres undefined) | 1.8
12.9 | 13.7 | 10.2 | – | O=C(OCCCC1=CC(=O)c2ccccc2C1=O)c1ccc2ccccc2c1 | 14.9
4.76 | 4.57 | 8.43 | – | CC(COC(=O)c1ccccc1)CC1=C(O)C(=O)c2ccccc2C1=O (centres undefined) | 2.31
10.3 | 4.65 | 11.6 | – | CC(COC(=O)c1ccccc1O)CC1=C(O)C(=O)c2ccccc2C1=O (centres undefined) | 75.9
42.9 | 33.7 | 45.7 | – | COc1c(C(=O)OCCCC2=C(O)C(=O)c3ccccc3C2=O)ccc2ccccc12 | 120
9.47 | 10.1 | 11.5 | – | COC1=C(CC(C)(C)COC(=O)c2ccc3ccccc3c2OC)C(=O)c2ccccc2C1=O | 5.96
2.83 | 2.16 | 3.14 | – | COc1cc(C(=O)OCC(C)CC2=C(O)C(=O)c3ccccc3C2=O)c(O)c2ccccc12 (centres undefined) | < 0.22
44.9 | 91.5 | 127 | – | COC1=C(CC(C)(C)COC(=O)c2ccc3ccccc3c2)C(=O)c2ccccc2C1=O | 47.9
4.24 | 4.09 | 4.28 | – | COc1cc(C(=O)OCCCC2=C(O)C(=O)c3ccccc3C2=O)c(O)c2ccccc12 | 40.9
45.4 | 93.8 | 64.4 | – | COc1cc(C(=O)OCCCC2=CC(=O)c3ccccc3C2=O)c(O)c2ccccc12 | 48.5
3.33 | 1.18 | 1.61 | – | COc1ccc(O)c(C(=O)OCC(C)(C)CC2=C(O)C(=O)c3ccccc3C2=O)c1 | 11.5
45.5 | 64.4 | 47.6 | – | CC(C)(COC(=O)c1cc(O)ccc1O)CC1=C(O)C(=O)c2ccccc2C1=O | 77
41.2 | 32 | 45.2 | – | CC(C)(COC(=O)c1ccc2ccccc2c1)CC1=CC(=O)c2ccccc2C1=O | 33.3
– | – | – | Not Active | O=C(O)C1=CCc2ccccc2C1 | –

IC50 (HeLa) [µM] | IC50 (KB [1]) [µM] | IC50 (HepG2) [µM] | IC50 (KB [2]) | Compound | IC50 (Vero) [µM]
– | – | – | Not Active | O=C(O)C1=CCc2ccccc2C1O (centres undefined) | –
1.17 | 1.59 | 1.3 | – | CC(C)(COC(=O)c1ccc2ccccc2c1)CC1=C(O)C(=O)c2ccccc2C1=O | 1.5
– | 59.4 | – | – | CC(CO)CC1=C(O)C(=O)c2ccccc2C1=O (centres undefined) | –
1.09 | 0.35 | 0.97 | – | COc1cc(C(=O)OCC(C)(C)CC2=C(O)C(=O)c3ccccc3C2=O)c(OC)c2ccccc12 | 32.7
4.04 | 1.86 | 4.72 | – | COc1ccccc1C(=O)OCC(C)(C)CC1=C(O)C(=O)c2ccccc2C1=O | 8.98
3.97 | 1.06 | 1 | – | CC(COC(=O)c1ccc2ccccc2c1O)CC1=C(O)C(=O)c2ccccc2C1=O (centres undefined) | 0.7
15.8 | 14.4 | 15.5 | – | O=C1C(=O)c2ccccc2C(O)=C1CCCOC(=O)c1ccc2ccccc2c1 | 24
– | – | – | Not Active | O=C1C(O)=C(CCCO)C(=O)c2ccccc21 | –
15.1 | 12.3 | 16.2 | – | O=C1C(=O)c2ccccc2C(O)=C1CCCOC(=O)c1ccc2ccccc2c1O | 124
0.23 | < 0.22 | 0.24 | – | COc1c(C(=O)OCC(C)(C)CC2=C(O)C(=O)c3ccccc3C2=O)ccc2ccccc12 | 17.6
> 233 | > 233 | > 233 | – | COc1cc(C(=O)OCCCC2=CC(=O)c3ccccc3C2=O)c(OC)c2ccccc12 | > 233
39.5 | 26.4 | 39.5 | – | COc1c(C(=O)OCC(C)CC2=CC(=O)c3ccccc3C2=O)ccc2ccccc12 (centres undefined) | 20.2
– | – | – | Not Active | COC1C(C(=O)O)=CCc2ccccc21 (centres undefined) | –
< 0.23 | < 0.23 | 0.32 | – | CC(C)(COC(=O)c1ccc2ccccc2c1O)CC1=C(O)C(=O)c2ccccc2C1=O | 1
3.8 | 3.52 | 3.65 | – | COc1cc(C(=O)OCC(C)CC2=C(O)C(=O)c3ccccc3C2=O)c(OC)c2ccccc12 (centres undefined) | 5.91
12.4 | 4.22 | 12.9 | – | CC(C)(COC(=O)c1cc(O)c2ccccc2c1O)CC1=C(O)C(=O)c2ccccc2C1=O | 15.4
4.55 | 4.04 | 4.96 | – | COc1ccc(O)c(C(=O)OCC(C)CC2=C(O)C(=O)c3ccccc3C2=O)c1 (centres undefined) | 14
3.02 | 1.53 | 4.85 | – | CC(C)(COC(=O)c1ccccc1)CC1=C(O)C(=O)c2ccccc2C1=O | 48.6
40.6 | 43 | 46.7 | – | COC1=C(CC(C)(C)COC(=O)c2ccccc2)C(=O)c2ccccc2C1=O | 34.8
3.42 | 3.38 | 3.54 | – | COc1ccc(OC)c(C(=O)OCC(C)(C)CC2=C(O)C(=O)c3ccccc3C2=O)c1 | 9.11
– | – | – | Not Active | COC1C=C(C(=O)O)C(OC)c2ccccc21 (centres undefined) | –
46.2 | 38.6 | 42.1 | – | CC(COC(=O)c1ccc2ccccc2c1O)CC1=CC(=O)c2ccccc2C1=O (centres undefined) | 37.9
0.33 | 0.03 | 0.4 | – | COc1cccc2c1C(=O)c1c(O)c3c(c(O)c1C2=O)C[C@@](O)(C(=O)CO)C[C@@H]3O[C@H]1C[C@H](N)[C@H](O)[C@H](C)O1 [DOXORUBICIN] | 23.9
4.12 | 1.64 | 4.04 | – | COc1ccccc1C(=O)OCC(C)CC1=C(O)C(=O)c2ccccc2C1=O (centres undefined) | 29.8
45.9 | 38.2 | 48.3 | – | CC(C)(COC(=O)c1ccc2ccccc2c1O)CC1=CC(=O)c2ccccc2C1=O | 90.8
